Results as given in patent US10633332B2, “Guanidine compounds for removal of oxyanions from aqueous solutions and for carbon dioxide capture” (UT-Battelle, LLC, priority 2010, dated 2020).
Several values for one entry are separate records, joined by “and”; a condition that tells them apart may be missing. Identical values can stand only once. Like-named read-outs stand apart in the source and are kept apart here. Marks after values point to notes of the source that are not given here.

Tests used:
[1] = Aqueous solubility of BBIG salts (gravimetric / UV spectroscopy); conditions: 25 °C, water, thermodynamic from solid
[2] = Sulfate separation from seawater (35S radiotracer, β liquid scintillation counting); conditions: for Amount of SO4^2− removed / [SO4^2−] left: initial sulfate 30 mM; for % Sulfate Removed / Sulfate Left: initial sulfate 30 mmol/L
Method: The seawater used in the experiment was collected from the gulf stream in the Atlantic Ocean. Prior to use, the water was pre-filtered to remove suspended particulates and small organisms. […] The sulfate concentration in seawater was estimated to be about 30 mM by titration with BaCl2. […] A volume of 0.75 mL of each of these solutions was pipetted into a 2 mL Eppendorf microcentrifuge tube, and 0.75 mL of seawater pre-spiked with the ^35S radiotracer was added. The resulting solution mixtures were mixed for 24 hours using a rotating wheel set at 60 rpm in a temperature-controlled air-box set at 25±0.2° C. […] The radiolabeled ^35S radiotracer is a β emitter, thereby allowing determination of the sulfate concentration of a solution spiked with a known amount of Na2^35SO4 by β liquid scintillation counting. The seawater solutions were pre-spiked with […] of the ^35S radiotracer, as above. […] The volume of the spike solution was determined by factoring in the original activity of the solution and correcting for the short half-life of the ^35S radiotracer. The Na2^35SO4 solution had completed 3.8 half-lives before use in this experiment. […] The resulting mixtures were vigorously shaken to allow for complete dissolution and dispersion of the salt solutions. The samples were then placed on the analyzer and counted for 30 minutes after allowing 60 minutes for dark-adaption.

[3] = Sulfate removal from a calcium sulfate suspension (CaSO4 dissolution cycle); conditions: overnight, room temperature, pH 6-7, powder X-ray diffraction
Method: An example of sulfate removal from a calcium sulfate suspension is shown schematically in FIG. 5. In the first step, the initial CaSO4 solid is treated with an aqueous chloride salt of the compound that results in crystallization of the guanidinium sulfate salt and release of the calcium ions in solution, as soluble CaCl2. In the second step, the insoluble guanidinium sulfate salt is treated with sodium hydroxide base to neutralize the guanidinium cations and release the sulfate ions in solution, as soluble Na2SO4. The resulting solid guanidine compound is then recycled and converted back into guanidinium chloride with aqueous HCl, so it can be reused in another CaSO4 dissolution cycle. Thus, the entire process is done in water (no organic solvents used), and the only chemicals consumed in the overall process are NaOH and HCl, resulting in two aqueous waste streams consisting of calcium chloride and sodium sulfate. The unique aspect of this invention is the employment of a crystallization process to achieve dissolution of CaSO4. Also, this approach is based on anion chelation by guanidinium groups rather than the more common metal chelation, which may be prone to interference from other metals in solution. […] Finally, the recovered BBIG was converted back into the chloride salt by treatment with aqueous hydrochloric acid and recycled for another CaSO4 dissolution cycle.

[4] = cited from earlier work; for reaction rate of CO2 with the amino acid: 25° C., expected
[5] = literature value; cited from earlier work
[6] = CO2 release and PyBIG regeneration using concentrated solar power; format: physicochemical; conditions: for Δm: 38 mg sample
Method: Carbon dioxide release and regeneration of PyBIG using concentrated solar power: The CO2 release from the PyBIGH2(CO3)(H2O)4 crystals was carried out by solar heating with a solar oven. The oven consists of a vacuum-insulated borosilicate tube placed in the focal point of two adjustable parabolic reflectors. The temperature inside the tube was monitored with a thermocouple. The PyBIGH2(CO3)(H2O)4 samples (0.038 g, 0.1 mmol) were loaded in 1 mL glass vials, which were placed inside the oven tube. The solar oven was then placed in the full sun and oriented to capture the maximum amount of sunlight. The temperature was ramped to the targeted values of 120° C., 140° C., 150° C., or 160° C. as fast as possible (typically within 3 to 10 minutes), then held within ±2° C. by intermittently moving the oven out of the sun, or/and closing the reflectors. The samples were subsequently removed from the tube, allowed to cool to room temperature, and weighed to determine their mass loss. The resulting yellow solids were analyzed by FTIR to confirm the disappearance of the carbonate and water peaks.
However, considering this transformation is highly endothermic, the possibility of using concentrated solar power to render the process more energy sustainable was explored. For the initial small-scale proof of concept, a solar oven (FIG. 6) was used to heat the PyBIGH2(CO3)(H2O)4 samples (38 mg, 0.1 mmol) at four different temperatures ranging between 120 and 160° C., monitoring the extent of the reactions by the samples' weight loss (Table 7 below). FTIR analyses also corroborated the release of CO2, most evidently noticeable by the disappearance of the strong peak at 1361 cm^−1 corresponding to the stretching mode of the carbonate anion.

[7] = Differential scanning calorimetry of CO2 release; format: physicochemical; conditions: DSC, all peaks between 80 and 140° C. integrated
Text: Although the CO2 desorption could theoretically be achieved by running reactions 1-6 in reverse order according to the principle of microscopic reversibility, in reality it would not be feasible as reaction 4 is practically irreversible. Such an approach would also defeat the purpose of avoiding heating the aqueous sorbent. Instead, once the loading is complete, the crystalline PyBIGH2(CO3)(H2O)4 is removed from solution and heated in the solid state to release the CO2 gas and the water vapors. Given the completely different conditions involved, such a gas-solid process must have different energetics compared to the gas-liquid-solid process involved in CO2 absorption. In order to determine the enthalpy of CO2 release, differential scanning calorimetry (DSC) was employed. DSC is a common technique used in thermal analysis of solids. […] As the enthalpy of vaporization for water is 40.65 kJ/mol, more than 90% of the enthalpy of desorption is used for water evaporation. This represents a significant energy penalty that must be accounted for, and which encourages the use of renewable sources of energy, such as concentrated solar power (vide infra), to make the overall DAC process energy more sustainable.

[8] = Carbonate/bicarbonate CO2 capture cycle: crystallization from 1 M NaHCO3
Text: Finally, thermal decomposition of PyBIGH2(CO3)(H2O)4 regenerates the PyBIG compound and releases the CO2. […] The resulting mixture was filtered, and the separated crystalline solid was confirmed by PXRD and FTIR to be PyBIGH2(CO3)(H2O)4. […] The entire carbonate separation cycle was run three times, with observed yields for PyBIGH2(CO3)(H2O)4 crystallization of 99.0±0.4%, 97.2±0.6%, and 91.4±0.4%, corresponding to the first, second, and third cycle, respectively. The regeneration of the PyBIG compound was nearly quantitative in each cycle.

[9] = aqueous, ˜10 mM
[10] = Thermodynamic analysis: reaction enthalpies (variable-temperature solubility, pKa, van't Hoff)

Compound: Cl.Cl.N=C(N)N/N=C/c1ccc(/C=N/NC(=N)N)cc1 [Compound 1]
- solubility at 48 h [1]: 63 mM
- degree of separation of sulfate from seawater [2]: very high degrees of separation
- Amount of SO4^2− removed ([2]; 1 equiv BBIG): 88%
- [SO4^2−] left ([2]; 1 equiv BBIG): 3.5 mM
- Amount of SO4^2− removed ([2]; 1.1 equiv BBIG): 95%
- [SO4^2−] left ([2]; 1.1 equiv BBIG): 1.6 mM
- Amount of SO4^2− removed ([2]; 1.5 equiv BBIG): 99%
- [SO4^2−] left ([2]; 1.5 equiv BBIG): 0.3 mM
- Amount of SO4^2− removed ([2]; 2 equiv BBIG): 99%
- [SO4^2−] left ([2]; 2 equiv BBIG): 0.3 mM
- % Sulfate Removed ([2]; compound 15 mmol/L): 40.8% and 41.8%
- Sulfate Left ([2]; compound 15 mmol/L): 1706 mg/L and 1676 mg/L
- % Sulfate Removed ([2]; compound 30 mmol/L): 88.7% and 88.0%
- Sulfate Left ([2]; compound 30 mmol/L): 326 mg/L and 347 mg/L
- % Sulfate Removed ([2]; compound 33 mmol/L): 95.6% and 93.6%
- Sulfate Left ([2]; compound 33 mmol/L): 128 mg/L and 185 mg/L
- % Sulfate Removed ([2]; compound 45 mmol/L): 99.0% and 98.9%
- Sulfate Left ([2]; compound 45 mmol/L): 28 mg/L and 30 mg/L
- % Sulfate Removed ([2]; compound 60 mmol/L): 98.9%
- Sulfate Left ([2]; compound 60 mmol/L): 31 mg/L
- conversion of solid CaSO4(H2O)2 into crystalline BBIG-SO4(H2O)2 [3]: complete conversion

Compound: Cl.Cl.N=C(N)N/N=C/c1cccc(/C=N/NC(=N)N)n1 [Compound 2]
- degree of separation of sulfate from seawater [2]: very high degrees of separation
- % Sulfate Removed ([2]; compound 15 mmol/L): 48.41% and 48.57%
- Sulfate Left ([2]; compound 15 mmol/L): 1487 mg/L and 1482 mg/L
- % Sulfate Removed ([2]; compound 30 mmol/L): 93.28% and 94.41%
- Sulfate Left ([2]; compound 30 mmol/L): 194 mg/L and 161 mg/L
- % Sulfate Removed ([2]; compound 33 mmol/L): 99.72% and 99.60%
- Sulfate Left ([2]; compound 33 mmol/L): 8 mg/L and 12 mg/L
- % Sulfate Removed ([2]; compound 45 mmol/L): 99.94%
- Sulfate Left ([2]; compound 45 mmol/L): 1.7 mg/L
- % Sulfate Removed ([2]; compound 60 mmol/L): 99.95%
- Sulfate Left ([2]; compound 60 mmol/L): 1.5 mg/L

Compound: NCC(=O)O [Glycine, glycine]
- reaction rate of CO2 with the amino acid [4]: 13.9 kM/s
- pKa [5]: 9.5

Compound: [Na+].[OH-] [NaOH]
- flux of CO2 absorbed from air ([4]; 1 M solution): around 30 μmol/m2/s

Compound: N=C(N)NN=Cc1cccc(C=NNC(=N)N)n1.O.O.O.O.O=C(O)O [PyBIGH2(CO3)(H2O)4]
- Δm/mi ([6]; 120° C., 30 min): −31.6%
- Δm ([6]; 120° C., 30 min): -12 mg
- Δm/mi ([6]; 140° C., 10 min): −34.2%
- Δm ([6]; 140° C., 10 min): -13 mg
- Δm/mi ([6]; 150° C., 5 min): −31.6%
- Δm ([6]; 150° C., 5 min): -12 mg
- Δm/mi ([6]; 160° C., 2 min): −36.8%
- Δm ([6]; 160° C., 2 min): -14 mg
- temperature of heating at which CO2 is released (heating the carbonate crystals): 80-120 °C
- decomposition completion (isothermal TGA at 80° C., after 300 minutes): 77%
- time to complete loss of carbon dioxide and water (isothermal TGA at 100° C.): 150 min
- time to complete loss of carbon dioxide and water (isothermal TGA at 120° C.): 60 min
- mass loss (oven, one hour at 120° C.): 34.3%
- mass loss (temperature-ramped TGA, between 65 and 140° C.): 35.2%
- overall enthalpy of desorption [7]: 53.3 ± 0.96 kcal/mol
- yield of PyBIGH2(CO3)(H2O)4 crystallization ([8]; first cycle, 1 M NaHCO3, room temperature, four hours): 99.0±0.4%
- yield of PyBIGH2(CO3)(H2O)4 crystallization ([8]; second cycle): 97.2±0.6%
- yield of PyBIGH2(CO3)(H2O)4 crystallization ([8]; third cycle): 91.4±0.4%

Compound: N=C(N)N/N=C/c1cccc(/C=N/NC(=N)N)n1 [PyBIG]
- pH of saturated solution [9]: about 10
- no decomposition of the regenerated compound up to (TGA-MS): 190 °C
- ΔH reaction 1 (PyBIG dissolution) ([10]; This study): 10.2 kcal/mol
- ΔH reaction 6 (PyBIGH2(CO3)(H2O)4 crystallization) ([10]; This study): -11.2 kcal/mol
- ΔH reaction 2 (PyBIG protonation by water) ([10]; This study, composed from protonation enthalpies and ionization of water): 43.6^a kJ/mol
- overall enthalpy of CO2 absorption ([10]; sum of reactions 1-6): -16.9 kcal/mol

Compound: CNCC(=O)O [Sarcosine, sarcosine]
- reaction rate of CO2 with the amino acid [4]: 18.6 kM/s
